According to patent US20240365773A1, “USE OF APOPTOSIS INHIBITORS FOR COLD STORAGE OF BLOOD PLATELETS” (DRK-BLUTSPENDEDIENST BADEN-WUERTTEMBERG-HESSEN GGMBH, priority 2021, published 2024):
Entries after “also recorded” stand apart in the source; their conditions may differ. Peptide text beside a SMILES is read from it. * marks the point of attachment. Cbz = O=C(OCc1ccccc1)*; CH2F = FC*

Columns and labels:
Type in all cases: cell-based, human
cold-stored PLTs [1] = experiment: Platelet adhesion on fibrinogen coated coverslips; conditions: for Number of adherent cells (day 4) / Number of adherent cells (day 7): cold-stored PLTs, TRAP; for Number of adherent cells (day 4): day 4, fibrinogen coated coverslips; for Number of adherent cells (day 7): day 7, fibrinogen coated coverslips
Experimental: Coverslips (Corning, New York, USA) were coated with […] of fibrinogen (Sigma Aldrich, Munich, Germany). After 4 and 7 days of storage PLTs (1×10^8 PLTs/mL) were seeded on coverslips and incubated for 1 hour at room temperature (RT) with TRAP (0.1 mM, Hart Biologicals, Hartlepool, UK). The adherent cells were fixed with 4% paraformaldehyde for 20 minutes (min) at RT. Images were captured from 5 different microscopic fields/coverslips (×100, Olympus IX73, Tokyo, Japan).

[2] = test system: PLTs of 4° C. stored APCs; experiment: PLT viability of cold stored APCs treated with apoptosis inhibitors; conditions: for % PLT viability (day 10): 4° C. stored APC; for % viable cells: APCs stored at 4° C., G04 150 μM, forskolin 0.75 μM
Experimental: (§1) APCs were collected from healthy volunteers according to the German guidelines for haemotherapy. Ten individuals donated two units of APCs collected with FENWAL AMICUS (Amicus, Fresenius Kabi, Bad Homburg, Germany) and stored in plasma or in PAS (SSP+, Macopharma, Langen, Germany) at 35% final plasma concentration at 4° C. and RT.
(§2) Appropriate concentration for the inhibitors was determined prior to experiments, by titrating different concentrations. Directly after the collection, the APCs were stored for an hour without agitation. APCs were split further into different culture bags under aseptic conditions and stored in sterile, oxygen permeable bag (Fresenius Kabi A G, Bad Homburg, Germany). APCs were treated with 150 μM RhoA inhibitor G04, 0.75 μM […] (PKA) activator forskolin or 40 μM Caspase-9 inhibitor z-LEHD-fmk. […] APCs without any additions were used as a negative control. After 2 hours of treatment at RT, all the samples except the control at RT, were stored at 4° C. under constant gentle agitation. All samples were activated with thrombin receptor-activating peptide TRAP ([…], HART Biologicals) prior to measurements.

PLTs from APCs = experiment: Determination of apoptosis (Annexin V-FITC staining); conditions: for % Apoptosis (day 10): 4° C. stored APC; for % apoptotic cells: APCs stored at 4° C., forskolin 0.75 μM, z-LEHD-fmk 40 μM
Experimental: as §1, §2
PLTs from APCs were washed, resuspended with 1 mM CaCl2 and stained with Annexin V-FITC (Beckman Coulter) for 60 min at RT. Freshly isolated PLTs were incubated with 10 μM ionomycin (Abcam, Cambridge, UK) and used as positive control.

[3] = test system: PLTs of 4° C. stored APCs; experiment: Platelet aggregation (light transmission PLT aggregation assay); conditions: for % PLT aggregation (day 7): 4° C. stored APC
Experimental: as §1, §2
PLT function was analyzed by FC and light transmission PLT aggregation assay (LTA) using a 4-channel-aggregometer (Labitec, Ahrensburg, Germany). Collagen (8 μg/ml), ristocetin ([…]) (both Molab, Langenfeld, Germany) or ADP (80 μM, Nycomed, Konstanz, Germany) were used as inductors.

[4] = test system: PLTs of 4° C. stored APCs; experiment: Measurement of mitochondrial transmembrane potential; conditions: APCs stored at 4° C.
Experimental: as §1, §2

[5] = test system: PLTs of 4° C. stored APCs; experiment: Functional analysis of cold stored APCs (all functional parameters); conditions: treated vs untreated
Experimental: PLTs (10×10^6/mL) were incubated with TRAP6 (20 μM) for 30 min at 37° C., fixed with 4% PFA for 20 min at RT. The expression of CD62P (CLBThromb/6, Beckman Coulter) and CD63 (CLBGran/12, Beckman Coulter) was determined by FC. The conformational changes of glycoproteins (GPs) IIb/IIIa complex upon activation with TRAP were detected by PAC-1-antibody (BD Bioscience) using FC. PLT function was analyzed by FC and light transmission PLT aggregation assay (LTA) using a 4-channel-aggregometer (Labitec, Ahrensburg, Germany). Collagen (8 μg/ml), ristocetin ([…]) (both Molab, Langenfeld, Germany) or ADP (80 μM, Nycomed, Konstanz, Germany) were used as inductors.

cold-stored PLTs [6] = experiment: Thrombin generation (calibrated automated thrombogram); conditions: each storage time point, vs buffer/untreated
Experimental: Thrombin generation was quantified performing a fluorescence based-assay using a calibrated automated thrombogram system (CAT, Stago, Maastricht, Netherlands). The fluorescence signal was acquired for 60 min with a 390-nm […] excitation/460-nm emission filter set.

cold-stored PLTs [7] = experiment: Clot formation (thromboelastometer); conditions: vs buffer/untreated
Experimental: The clot formation was analysed using a 6-channel thromboelastometer device (Clot Pro, Enicor, Germany) and parameters were automatically calculated by dedicated software.

Row | SMILES | Number of adherent cells (day 4) (cold-stored PLTs [1]) | Number of adherent cells (day 7) (cold-stored PLTs [1]) | % PLT viability (day 10) ([2]; day 10) [%] | % viable cells ([2]; day 7) [%] | % viable cells ([2]; day 10, z-LEHD-fmk 40 μM) [%] | % Apoptosis (day 10) (PLTs from APCs; day 10) [%] | % apoptotic cells (PLTs from APCs; day 7) [%] | % apoptotic cells (PLTs from APCs; day 10, G04 150 μM) [%] | % PLT aggregation (day 7) [3] | mitochondrial transmembrane potential ΔΨm MFI ([4]; day 7) [MFI] | mitochondrial transmembrane potential ΔΨm MFI ([4]; day 10) [MFI] | PLT functions / functional parameters (overall, in words) [5] | thrombin generation (AUC, area under the curve), in words (cold-stored PLTs [6]) | PLT adhesion, number of adherent cells (in words) (cold-stored PLTs [1]; cold-stored PLTs after 4 and 7 days of storage, vs buffer/untreated) | PLT viability / survival (in words) ([2]; cold stored APCs) | clot formation (MCF, maximum clot firmness), in words (cold-stored PLTs [7]) | apoptosis (in words) (PLTs from APCs; cold stored APCs) | PLT aggregation (in words) ([3]; cold stored APCs, day 4)
1 | C=C[C@@]1(C)CC(=O)[C@]2(O)[C@@]3(C)[C@@H](O)CCC(C)(C)[C@@H]3[C@H](O)[C@H](OC(C)=O)[C@@]2(C)O1 [forskolin] | No significant effect | No significant effect | 58.95 | 87.1 | 58.95 | 33 | 9.3 | 33 | No significant effect | 17.88 | 11.02 |  |  |  |  |  |  | 
2 | COC(=O)CC[C@H](NC(=O)[C@H](CC(C)C)NC(=O)OCc1ccccc1)C(=O)N[C@@H](Cc1cnc[nH]1)C(=O)N[C@@H](CC(=O)OC)C(=O)CF [z-LEHD-fmk] (Cbz-LE(OMe)HD(OMe)-CH2F) | No significant effect | No significant effect | 60.38 |  | 60.38 | 39 | 9.85 | 39.00 | No significant effect |  | 6.26 | no significant impact; also recorded: does not affect the diminished PLT function; also recorded: does not affect PLT functions | no significant impact | no significant impact | partially restores PLT viability | no significant impact | decreases apoptosis | tendency of decreased PLT aggregation was observed at day 4 after the treatment, but it was not significant
